For orientation: IC50 means the point on the concentration scale where inhibition reaches its midpoint.

Read-outs that look alike come from different tables or passages of the source.

What all share (assay): Whole cell voltage clamp of endogenous sodium currents (INa) in cultured DRG sensory neurons
Holding throughout (type): cell-based, mouse

Test [1] has as its system T1, endogenous voltage-gated sodium channels expressed in murine DRG neurons.
T1 construct: other: waiting for 5 minutes after removal; ND-Tam potency against DRG INa (IC50); other: DRG neurons, −60 mV holding potential; other: 3 μM ND-Tam treatment; other: DR
Particulars: −60 mV holding potential, read-out: ND-Tam potency against DRG INa (IC50).

The subject of test [2] is T2, endogenous voltage-gated sodium channels expressed in murine DRG neurons.
T2 construct: other: DRG neurons, −40 mV holding potential
The conditions noted are these: −40 mV holding potential, read-out: ND-Tam potency against DRG INa (IC50).

The subject of test [3] is T1, endogenous voltage-gated sodium channels expressed in murine DRG neurons. Here is the method:
FIG. 1. Tamoxifen metabolites inhibit endogenous voltage-gated sodium channels expressed in murine DRG neurons. A) DIC and fluorescence images of voltage clamped DRG neuron isolated and cultured from an Nav1.8-tomato mouse. Continuity with the patched neuron is indicted by the GFP (Alexa Fluor 488 dye 1 nM) loaded into the glass patch electrode. B) Top, exemplar sodium currents (INa) recorded in control saline and two concentrations of N-desmethyl tamoxifen (ND-Tam) from a voltage-clamped DRG neuron. INa was activated by 0.2 Hz train of 50 ms depolarizations to −10 mV from −100 mV holding potential. Bottom, time course of peak INa inhibition during control conditions and after 5 minutes of extracellular ND-Tam treatment. C) Resulting drug concentration-INa inhibition relationship for ND-Tam fit to the Hill equation. Open symbols represent responses from individual cells and filled symbols represent average response per concentration. Error is equal to S.E.M. (n=11) D) A comparison of the percent INa recovery after 3-10 μM ND-Tam or 1 mM carbamazepine (CBZ) inhibition. INa recovery was assessed after 5 minutes in control saline post drug exposure. Fewer INa recovered from ND-Tam exposure compared to CBZ exposure, 14.3±5.4% and 47.2±9.6%, respectively, and was statistically significant (P=0.03). Error is equal to S.E.M. and the number of cells tested per treatment group is indicated within the parentheses.
Previously, a unique receptor site for tamoxifen analogues within the prokaryotic sodium channel isolated form Magnetococcus marinus (NavMs)^36 (Sula et al) was crystallographically identified. Because drug occupancy of this receptor caused long lasting inhibition of the NavMs INa, the inventors wondered if these properties would translate into effects against sensory neuron Na s which transmit pain signals. Accordingly, =the potency of ND-Tam and 4OH-Tam was tested against endogenously expressed Na s in cultured DRG sensory neurons isolated from Nav1.8-tdTomato mice by conducting whole cell voltage clamp recordings (FIG. 1A, B). Sodium currents were activated by a 0.2 Hz train of −10 mV depolarizations from a holding potential of −100 mV. The externally applied drug effect was determined after three to five minutes of application of each drug concentration (FIG. 1B). […] As discussed in the introduction, total DRG INa is conducted by the Nav1.1, Nav1.6, Nav1.7, Nav1.8 and Nav1.9 subtypes. To determine if there is any specificity in the potency of tamoxifen analogues against Nav subtypes, human orthologues were heterologously expressed in cell lines (HEK and CHO co-expressing hb1 subunits), and conducted voltage-clamp experiments, as previously performed in the DRG neurons.
Dorsal root ganglia were isolated using a modified version of the previously described protocol (PMID: 26864470). All animal procedures were approved by the Institutional Animal Care and Use Committee at the Feinberg Medical School, Northwestern University. The spinal columns of 4-6-week-old […] or Nav1.8-Tomato mice (Nav1.8-Td) were removed and DRG neurons from all spinal levels were isolated for primary culture (PMID: 33827672, PMID: 31351964). The collected DRGs, containing both neuronal and non-neuronal cells, were acutely dissociated in DMEM with collagenase IV (2 mg/mL) for 30 minutes, followed by papain (25 U/mL) for 30 minutes. The cells were then triturated, filtered through a 40 μm cell strainer to remove non-dissociated cells, and washed with DMEM. The DRGs were resuspended in 70 μL of pre-warmed growth medium (DMEM F12+Glutamax supplemented with 0.5% FBS, 0.5% penicillin/streptomycin, 1% N-2 supplement, and β-NGF ([…]) added on the day of use) and plated on poly-l-lysine (10 mg/mL) and laminin (25 μg/mL) prepared coverslips. The DRGs were incubated at 37° C. for 2-4 hours before more growth medium was added to the wells. […]

As for `CC/C(=C(\c1ccccc1)c1ccc(OCCNC)cc1)c1ccccc1` [ND-Tam, 2-[4-[(Z)-1,2-diphenylbut-1-enyl]phenoxy]-N-methylethanamine], the IC50 in test [1] was 112 nM; in test [2], 3.9 nM; in test [3] (DRG neurons, −100 mV holding potential, 0.2 Hz train of −10 mV depolarizations, read-out: half maximal potency of INa inhibition (IC50)), 1700 nM. Also, in test [3] (3 μM ND-Tam treatment), the “block of the total INa” value is “≈ 45%”. The “change in the half-maximal activation of conductance (GV1/2)” value in test [3] (3 μM ND-Tam treatment) is on record as “No change”. In addition, the “voltage-dependence of inactivation (V1/2) after drug treatment” value in test [3] (ND-Tam (3 μM), control −47.6±0.4 mV) is reported as −51.9±0.4 mV. In addition, in test [3] (ND-Tam conditions (3 μM), control −38.3±0.3 mV), the “half-maximal conductance-voltage relationship (V1/2)” value is reported as −37.7±0.4 mV. The “shift in voltage dependence of inactivation” value in test [3] (after 3 μM ND-Tam treatment, P=0.01) is recorded as −8 mV. Also, the “inhibition of sodium currents recorded from DRG neurons (in words)” value in test [3] (tamoxifen analogs and fragments, FIG. 7B) is given as “inhibited sodium currents”. For the same molecule, the “INa that did not recover after removing drug from the bath” value in test [3] (waiting for 5 minutes after removal) was determined as 86±5%. Besides, the “increase in potency when neuron membranes were held at more depolarizing potentials” value in test [3] (−40, −60 and −100 mV holding potentials) is listed as 15-44 ×.

The record behind these values is US20230141863A1, “Small Molecule Inhibitors Targeting the Sodium Channel Tamoxifen Receptor and Uses Thereof” (Northwestern University, priority 2021, published 2023).
